Results from patent publication US10548999B2, “Method and apparatus for sterilizing preform” (DAI NIPPON PRINTING CO., LTD., priority 2012, dated 2020).
Read-outs that look alike come from different tables or passages of the source.

Experiments:
BaciLLus subtiLis [1] = system: BaciLLus subtiLis
Description: The hydrogen peroxide water adhered to each preform having inner volume of 500 ml for bottle as in the first example 1. Furthermore, superheated steam of flow amount of 0.7 g/sec. generated by heating water by a superheated steam generator of an induction heating system was sprayed to the inner surface of each preform from a nozzle having inner diameter of 8 mm at blasting temperature in a range of 180 to 550° C. for 10 to 3 sec.
Further, it is to be noted that, in the above Table 3, the sterilization effect is shown with [∘] (good) in the case where the D-value with respect to BaciLLus subtiLis is not less than 6, and the other cases are shown with [x] (not good). With respect to the deformation of the inner diameter, in the case where the inner diameter of the preform is deformed by less than 0.05 mm is shown [∘] (good), and the other cases are shown with [x] (not good).

AspergiLLus niger [2] = system: AspergiLLus niger
Description: (§1) The first chamber 5a and the second chamber 6a have size of 1000 mm width, and 1500 mm length, and 200 mm height, respectively. Preforms, each being formed into a bottle of 500 ml, were supplied to the conveyer by the number of 860 bottles/min., and the conveyer was driven at a predetermined speed.
(§2) In the above Table 4, term “B” is an abbreviated term of “BaciLLus subtiLis”, and “A.nig.” is an abbreviated term of “AspergiLLus niger”. “D” is a D-valve indicating the sterilization effect.

BaciLLus subtiLis [3] = system: BaciLLus subtiLis; remark: listed apart in the source
Description: as §1, §2

[4] = preform molded into a bottle and filled with water
Description: (§3) Mist of hydrogen peroxide water was produced by supplying hydrogen peroxide water of 35% concentration and pressurized air to a two-fluid spray, the thus produced mist was mixed with hot air having temperature of 60° C., and then, the mist of the hydrogen peroxide water was sprayed inside a chamber through a nozzle. The chamber is a box-shaped member, having no bottom, having a size of 1,000 mm width, 1,500 mm length and 200 mm height, and the box-shaped chamber was set to a predetermined position on the conveyer having 600 mm width. Preforms of the number of 860 bottles/min., each being formed into a bottle of […], were supplied to the conveyer, which is driven at a speed of 0.2/sec.

BaciLLus subtiLis [5] = details: 35% hydrogen peroxide water mist mixed with 60° C. hot air, about 50 mg per preform
Description: as §3

AspergiLLus niger [6] = details: then superheated steam 300° C. 5 sec. to inner surface
Description: (§4) Mist of hydrogen peroxide water was produced by supplying hydrogen peroxide water of 35% concentration and pressurized air to a two-fluid spray, the thus produced mist was mixed with hot air having temperature of 60° C., and then, the mist of the hydrogen peroxide water was sprayed inside a chamber through a nozzle. The chamber has a size of 600 mm width, and a conveyer has 1.5 m length. Preforms, each being formed into a bottle of […], were supplied to the conveyer by the number of 860 bottles/min., and the conveyer was driven at a speed of 0.2/sec. […] Furthermore, preforms, each being formed into a bottle of […], were supplied by the number of 250 bottles/min., and the same operation was performed. […] Such preforms were subjected to the following treatment.
(§5) Superheated steam of flow amount of 0.7 g/sec. generated by heating water by a superheated steam generator of induction heating system was sprayed to each inner surface of the preform from a nozzle having inner diameter of 8 mm at blasting temperature of 300° C. for 5 sec.
(§6) In the above Table 1, term “B” is an abbreviated term of “BaciLLus subtiLis”, and “A.nig.” is an abbreviated term of “AspergiLLus niger”. “D” is a D-valve indicating the sterilizing effect.

BaciLLus subtiLis [7] = details: then superheated steam 300° C. 5 sec. to inner surface
Description: as §4, §5, §6

[8] = hydrogen peroxide 3%, hot air NO, superheated steam 400° C., 0.2 m/sec.
[9] = preform for 2 L, 35% mist about 150 mg
[10] = preform for 500 mL, 35% mist about 50 mg

OO [hydrogen peroxide]
Sterilizing Effect (BaciLLus subtiLis [1]; hydrogen peroxide water as in Example 1, then superheated steam 180° C., 10 sec.): X (the other cases are shown with [x] (not good))
Sterilizing Effect (BaciLLus subtiLis [1]; hydrogen peroxide water as in Example 1, then superheated steam 250° C., 6 sec.): ◯ ([∘] (good) in the case where the D-value with respect to BaciLLus subtiLis is not less than 6)
Sterilizing Effect (BaciLLus subtiLis [1]; hydrogen peroxide water as in Example 1, then superheated steam 350° C., 4 sec.): ◯ ([∘] (good) in the case where the D-value with respect to BaciLLus subtiLis is not less than 6)
Sterilizing Effect (BaciLLus subtiLis [1]; hydrogen peroxide water as in Example 1, then superheated steam 450° C., 3 sec.): ◯ ([∘] (good) in the case where the D-value with respect to BaciLLus subtiLis is not less than 6)
Sterilizing Effect (BaciLLus subtiLis [1]; hydrogen peroxide water as in Example 1, then superheated steam 550° C., 3 sec.): ◯ ([∘] (good) in the case where the D-value with respect to BaciLLus subtiLis is not less than 6)
sterilization effect A. niger (AspergiLLus niger [2]; [8]): 6.0D
sterilizing effect with respect to the A. niger (AspergiLLus niger [2]; superheated steam added with hydrogen peroxide, regardless of the preheating by hot air (summary of Table 4)): more than 6.0 D
sterilization effect B. sub. (BaciLLus subtiLis [3]; hydrogen peroxide 3%, hot air 100° C., superheated steam 200° C., 0.2 m/sec.): 5.3D
sterilization effect B. sub. (BaciLLus subtiLis [3]; hydrogen peroxide 3%, hot air 100° C., superheated steam 400° C., 0.2 m/sec.): 6.0D
sterilization effect B. sub. (BaciLLus subtiLis [3]; [8]): 4.0D
sterilization effect B. sub. (BaciLLus subtiLis [3]; hydrogen peroxide 10%, hot air 80° C., superheated steam 400° C., 0.2 m/sec.): 6.0D
sterilization effect B. sub. (BaciLLus subtiLis [3]; hydrogen peroxide 10%, hot air NO, superheated steam 400° C., 0.5 m/sec.): 5.5D
sterilizing effect with respect to the B.sub (BaciLLus subtiLis [3]; preheating performed and superheated steam added with hydrogen peroxide blasted (summary of Table 4)): more than 6.0 D
remaining amount of the hydrogen peroxide [4]: 0.012 ppm
sterilizing power (BaciLLus subtiLis [5]; inner surface of the preform): 4.2 D
sterilizing power (BaciLLus subtiLis [5]; outer surface of the preform): 5.3 D
sterilizing effect A. nig (AspergiLLus niger [6]; [9]): More than 6.0D
sterilizing effect A. nig (AspergiLLus niger [6]; [10]): More than 6.0D
sterilizing effect B. sub. (BaciLLus subtiLis [7]; [9]): 3.0D
sterilizing effect B. sub. (BaciLLus subtiLis [7]; [10]): 3.1D
